Literature values in patent publication US20090297541A1, “MATURATION OF DENDRITIC CELLS” (priority 2006, published 2009).

Tests used:
IFNGR1 chain = details: high affinity
immature DCs = details: MPLA at low doses (under 50 μg/ml)
monocyte-derived DCs = details: MPLA alone at concentrations up to 100 μg/ml

Row | Kd (IFNGR1 chain) | Substance | impact on DC maturation (monitored by IL-12 production) (immature DCs) | production of IL-12p70 or IL-10 (monocyte-derived DCs) | migration and functional maturation of DCs in vivo (murine DCs)
1 | ~1 nM | IFN-gamma: cytokine, homodimer of two noncovalently bound polypeptide subunits; IFNγ receptor agonist |  |  | 
2 |  | Monophosphoryl lipid A [MPLA] | no impact on DC maturation | failed to induce any significant production of IL-12p70 or IL-10 | induces the migration and functional maturation of murine DCs in vivo
